Data published in ChEMBL document CHEMBL1201862, “PubChem BioAssay data set” (2004).
Active and inactive are the calls of the source.

Assays:
[1] = Luminescence Cell-Based Dose Response to Identify Activators of 5'UTR Stem-Loop Driven Prion Protein mRNA Translation in H4-C Neuroglioblastoma Cells. [Related pubchem assays: 1829 (Project Summary), 1814 (Primary HTS)]; assay type: functional
[2] = Luminescence Cell-Based Dose Confirmation HTS to Identify Activators of 5'UTR Stem-Loop Driven Alpha-Synuclein mRNA Translation in H4 Neuroglioblastoma Cells. [Related pubchem assays: 1829 (Project Summary), 1814 (Primary HTS)]; assay type: functional
[3] = Luminescence Cell-Based Dose Confirmation to Identify Activators of 5'UTR Stem-Loop Driven Alpha-Synuclein mRNA Translation in H4 Neuroglioblastoma Cells. [Related pubchem assays: 1829 (Project Summary), 1814 (Primary HTS)]; assay type: functional
[4] = Luminescence Cell-Based Dose Response to Identify Activators of Luciferase Translation or Activity in H4-C Neuroglioblastoma Cells. [Related pubchem assays: 1829 (Project Summary), 1814 (Primary HTS)]; assay type: functional
H4 = test: Luminescence Cell-Based Dose Response HTS to Identify Activators of 5'UTR Stem-Loop Driven Prion Protein mRNA Translation in H4 Neuroglioblastoma Cells. [Related pubchem assays: 1829 (Project Summary), 1814 (Primary HTS)]; assay type: functional; conditions: Homo sapiens
[5] = Luminescence Cell-Based Dose Response HTS to Identify Activators of Luciferase Translation or Activity in H4 […] Cells. [Related pubchem assays: 1829 (Project Summary), 1814 (Primary HTS)]; assay type: functional
[6] = molecular target: T1, Heat shock factor protein 1 (Mus musculus, UniProt P38532); test: decrease of HSF1-responsive luciferase luminescence – cell-based, NIH3T3, dose retest, confirmation (AID 2382); assay type: functional;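 further: NIH3T3 fibroblasts with HSF1-driven luciferase reporter stressed by proteasome inhibitor MG132; luminescence from HSF1-driven luciferase expression after 8 hours of MG132 stress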
T1 sequence (P38532 whole entry): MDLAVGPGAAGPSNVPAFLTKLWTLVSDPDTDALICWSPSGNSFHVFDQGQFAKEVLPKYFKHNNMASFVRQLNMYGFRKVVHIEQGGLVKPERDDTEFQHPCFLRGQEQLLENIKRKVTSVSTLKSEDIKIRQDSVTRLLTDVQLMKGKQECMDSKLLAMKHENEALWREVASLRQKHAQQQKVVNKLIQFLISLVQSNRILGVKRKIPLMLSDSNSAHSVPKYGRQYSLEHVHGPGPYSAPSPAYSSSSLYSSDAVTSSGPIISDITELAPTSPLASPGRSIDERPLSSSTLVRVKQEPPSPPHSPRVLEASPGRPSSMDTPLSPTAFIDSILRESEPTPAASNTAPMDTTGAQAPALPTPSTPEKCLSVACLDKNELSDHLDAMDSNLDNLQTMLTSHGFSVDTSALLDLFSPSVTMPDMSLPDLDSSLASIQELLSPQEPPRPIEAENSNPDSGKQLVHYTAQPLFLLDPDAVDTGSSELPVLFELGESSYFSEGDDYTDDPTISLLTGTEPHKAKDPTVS

[7] = molecular target: T2, Aryl hydrocarbon receptor (Homo sapiens, UniProt P35869); test: Luminescence-based cell-based high throughput dose response assay for activators of the Aryl Hydrocarbon Receptor (AHR). [Related pubchem assays: 2796 (Primary screen (AHR activators in singlicate)), 2845 (Confirmation screen (AHR activators in triplicate)), 434939 (Counterscreen (PXR activators in triplicate)), 2804 (Summary (AHR activators))]; assay type: ADME
T2 sequence (P35869 whole entry): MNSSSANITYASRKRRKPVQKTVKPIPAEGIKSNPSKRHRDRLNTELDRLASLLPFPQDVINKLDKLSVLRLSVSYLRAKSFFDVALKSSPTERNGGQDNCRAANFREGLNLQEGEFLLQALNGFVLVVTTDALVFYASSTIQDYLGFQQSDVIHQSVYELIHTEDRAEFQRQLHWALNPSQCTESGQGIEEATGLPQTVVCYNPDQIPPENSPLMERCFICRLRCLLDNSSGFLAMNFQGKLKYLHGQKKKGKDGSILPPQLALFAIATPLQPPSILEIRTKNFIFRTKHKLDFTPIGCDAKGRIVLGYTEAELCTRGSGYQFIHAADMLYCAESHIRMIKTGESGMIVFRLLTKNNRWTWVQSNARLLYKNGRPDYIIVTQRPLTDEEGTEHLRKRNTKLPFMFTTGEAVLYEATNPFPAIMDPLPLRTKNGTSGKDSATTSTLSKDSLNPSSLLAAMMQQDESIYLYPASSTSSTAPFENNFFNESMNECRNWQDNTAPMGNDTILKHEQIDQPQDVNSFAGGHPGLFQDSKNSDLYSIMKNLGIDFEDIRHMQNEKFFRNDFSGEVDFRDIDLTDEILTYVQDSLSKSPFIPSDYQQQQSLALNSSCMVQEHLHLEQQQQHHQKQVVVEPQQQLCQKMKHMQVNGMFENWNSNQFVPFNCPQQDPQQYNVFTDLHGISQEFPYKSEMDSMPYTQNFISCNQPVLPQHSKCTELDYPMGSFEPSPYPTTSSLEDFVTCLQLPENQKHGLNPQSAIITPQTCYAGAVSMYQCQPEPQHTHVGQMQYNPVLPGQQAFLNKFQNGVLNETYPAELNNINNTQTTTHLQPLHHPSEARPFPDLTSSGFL

[8] = Luminescence-based dose response cell-based high throughput screening assay for cytotoxic compounds using the IEC-6 intestinal epithelial cell line. [Related pubchem assays: 1858 (Summary AID.), 1825 (Counterscreen.), 1907 (Confirmation screen.)]; assay type: functional
[9] = molecular target: T3, Carboxy-terminal domain RNA polymerase II polypeptide A small phosphatase 1 (Homo sapiens, UniProt Q9GZU7); test: CTDSP1 inhibitors, concentration-response, biochemical, absorbance readout, ultra-high-throughput screen actives (AID 540297); assay type: functional
T3 sequence (Q9GZU7 whole entry): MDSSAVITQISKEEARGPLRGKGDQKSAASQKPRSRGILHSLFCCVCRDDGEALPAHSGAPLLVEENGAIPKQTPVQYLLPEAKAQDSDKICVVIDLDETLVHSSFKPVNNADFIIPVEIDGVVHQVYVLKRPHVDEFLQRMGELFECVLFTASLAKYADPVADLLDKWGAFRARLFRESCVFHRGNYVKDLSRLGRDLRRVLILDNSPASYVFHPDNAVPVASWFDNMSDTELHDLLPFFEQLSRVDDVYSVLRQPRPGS

[10] = viability of uninfected HEp-2 cells – cell-based, HTS, cytotoxicity control for RSV inhibitor project, dose response (AID 2410); assay type: functional; conditions: human respiratory syncytial virus
[11] = CCR5-tropic HIV-1 fusion blockers – cell-based, CCR5-tropic Env, dose response (AID 2279); assay type: functional
Estrogen receptor = molecular target: T4, Estrogen receptor (Homo sapiens, UniProt P03372);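 further: potency for inhibiting coactivator peptide recruitment to the receptor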
T4 sequence (P03372 whole entry): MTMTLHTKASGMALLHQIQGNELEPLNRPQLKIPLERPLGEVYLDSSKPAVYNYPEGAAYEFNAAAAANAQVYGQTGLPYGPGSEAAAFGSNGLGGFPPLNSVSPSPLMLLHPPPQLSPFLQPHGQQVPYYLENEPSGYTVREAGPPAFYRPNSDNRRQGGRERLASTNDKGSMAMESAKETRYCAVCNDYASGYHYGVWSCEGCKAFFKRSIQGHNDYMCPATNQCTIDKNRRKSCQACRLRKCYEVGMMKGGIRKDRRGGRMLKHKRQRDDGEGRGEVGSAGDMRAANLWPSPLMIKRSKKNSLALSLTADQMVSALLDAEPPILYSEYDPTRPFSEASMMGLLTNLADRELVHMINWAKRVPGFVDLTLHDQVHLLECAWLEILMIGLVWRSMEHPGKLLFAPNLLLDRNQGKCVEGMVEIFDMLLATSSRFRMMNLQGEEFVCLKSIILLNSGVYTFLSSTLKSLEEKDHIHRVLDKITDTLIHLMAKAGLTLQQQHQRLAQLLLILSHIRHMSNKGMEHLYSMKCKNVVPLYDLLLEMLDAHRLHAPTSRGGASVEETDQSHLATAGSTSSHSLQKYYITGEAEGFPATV

Streptococcus = test: GAS UMAA2166 growth inhibition – luminescence, BacTiterGlo, counter-screen for streptokinase expression inhibitor project, dose response (AID 1915); assay type: functional, organism-based;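 further: potency for reduction of bacterial viability or growth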
[12] = viability of HCT116 lacking mutant beta-catenin – cell-based, human colon tumor, dose response (AID 1045); assay type: functional;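 further: HCT116 colon tumor cells with beta catenin knocked out; cells exposed to compound for 60 hours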
INS1 = test: INS-1E survival protection against cytokine death – cell-based, luminescence, retest, dose response (AID 449756); assay type: functional; conditions: Rattus norvegicus;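 further: cell death triggered by IL-1 beta plus TNF-alpha plus IFN-gamma mixture; protective hits raise ATP signal compared with cytokine alone wells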
[13] = viability of PTEN-deleted HCT116 cells – cell-based, HCT116 PTEN knockout, dose response (AID 1047); assay type: functional;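 further: HCT116 colon tumor cells with PTEN knocked out; cells exposed to compound for 60 hours before readout; potency for loss of cell viability measured by luminescence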
[14] = A Cell Based Secondary Assay To Explore Cytotoxicity of Compounds that Sensitize Mycobacterium Tuberculosis to Beta-Lactam Antibiotics.; assay type: functional
[15] = system: Streptococcus sp. 'group A'; test: Streptococcus pyogenes SK(-)GAS viability under kanamycin – luminescence, BacTiterGlo, confirmation, counter-screen for streptokinase expression inhibitor project, dose response (AID 1900); assay type: functional, organism-based
Genome polyprotein = Genome polyprotein (dengue virus type 2, UniProt P29990); test: flavivirus cap methylation enzyme inhibition – biochemical, confirmation dose response, primary screen (AID 588689); assay type: functional
Chain of Genome polyprotein (P29990 2492-3391 limits assumed): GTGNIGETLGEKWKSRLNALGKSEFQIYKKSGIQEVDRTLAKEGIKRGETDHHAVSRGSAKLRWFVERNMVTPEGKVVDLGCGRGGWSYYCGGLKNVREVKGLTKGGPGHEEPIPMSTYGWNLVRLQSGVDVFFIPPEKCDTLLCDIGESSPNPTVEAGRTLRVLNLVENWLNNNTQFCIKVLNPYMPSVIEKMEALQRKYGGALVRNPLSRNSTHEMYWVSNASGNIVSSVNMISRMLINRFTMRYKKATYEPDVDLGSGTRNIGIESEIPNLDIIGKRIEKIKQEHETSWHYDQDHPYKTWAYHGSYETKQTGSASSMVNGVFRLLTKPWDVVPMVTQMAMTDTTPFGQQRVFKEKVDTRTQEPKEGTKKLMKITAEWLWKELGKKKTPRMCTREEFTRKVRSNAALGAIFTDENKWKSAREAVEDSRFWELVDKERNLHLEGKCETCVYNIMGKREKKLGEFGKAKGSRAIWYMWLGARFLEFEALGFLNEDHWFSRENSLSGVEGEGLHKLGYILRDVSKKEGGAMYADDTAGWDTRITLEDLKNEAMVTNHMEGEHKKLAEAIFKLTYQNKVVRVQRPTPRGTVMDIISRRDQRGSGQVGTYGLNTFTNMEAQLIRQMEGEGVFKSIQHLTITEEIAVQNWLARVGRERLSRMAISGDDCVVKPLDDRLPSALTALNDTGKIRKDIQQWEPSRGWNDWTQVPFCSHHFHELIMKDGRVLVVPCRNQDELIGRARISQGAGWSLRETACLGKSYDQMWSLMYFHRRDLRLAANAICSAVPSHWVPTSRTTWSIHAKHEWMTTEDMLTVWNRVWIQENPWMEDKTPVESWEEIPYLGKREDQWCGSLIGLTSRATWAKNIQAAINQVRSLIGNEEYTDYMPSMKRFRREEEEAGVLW

Aminopeptidase N = molecular target: T5, Aminopeptidase N (Plasmodium falciparum FcB1/Columbia, UniProt O96935); test: malaria alanyl aminopeptidase activity blockers – biochemical, fluorogenic H-Leu-NHMec substrate, 1536-well (AID 1445); parameters: species or system Plasmodium falciparum 3D7, 3D7
T5 sequence (O96935 whole entry): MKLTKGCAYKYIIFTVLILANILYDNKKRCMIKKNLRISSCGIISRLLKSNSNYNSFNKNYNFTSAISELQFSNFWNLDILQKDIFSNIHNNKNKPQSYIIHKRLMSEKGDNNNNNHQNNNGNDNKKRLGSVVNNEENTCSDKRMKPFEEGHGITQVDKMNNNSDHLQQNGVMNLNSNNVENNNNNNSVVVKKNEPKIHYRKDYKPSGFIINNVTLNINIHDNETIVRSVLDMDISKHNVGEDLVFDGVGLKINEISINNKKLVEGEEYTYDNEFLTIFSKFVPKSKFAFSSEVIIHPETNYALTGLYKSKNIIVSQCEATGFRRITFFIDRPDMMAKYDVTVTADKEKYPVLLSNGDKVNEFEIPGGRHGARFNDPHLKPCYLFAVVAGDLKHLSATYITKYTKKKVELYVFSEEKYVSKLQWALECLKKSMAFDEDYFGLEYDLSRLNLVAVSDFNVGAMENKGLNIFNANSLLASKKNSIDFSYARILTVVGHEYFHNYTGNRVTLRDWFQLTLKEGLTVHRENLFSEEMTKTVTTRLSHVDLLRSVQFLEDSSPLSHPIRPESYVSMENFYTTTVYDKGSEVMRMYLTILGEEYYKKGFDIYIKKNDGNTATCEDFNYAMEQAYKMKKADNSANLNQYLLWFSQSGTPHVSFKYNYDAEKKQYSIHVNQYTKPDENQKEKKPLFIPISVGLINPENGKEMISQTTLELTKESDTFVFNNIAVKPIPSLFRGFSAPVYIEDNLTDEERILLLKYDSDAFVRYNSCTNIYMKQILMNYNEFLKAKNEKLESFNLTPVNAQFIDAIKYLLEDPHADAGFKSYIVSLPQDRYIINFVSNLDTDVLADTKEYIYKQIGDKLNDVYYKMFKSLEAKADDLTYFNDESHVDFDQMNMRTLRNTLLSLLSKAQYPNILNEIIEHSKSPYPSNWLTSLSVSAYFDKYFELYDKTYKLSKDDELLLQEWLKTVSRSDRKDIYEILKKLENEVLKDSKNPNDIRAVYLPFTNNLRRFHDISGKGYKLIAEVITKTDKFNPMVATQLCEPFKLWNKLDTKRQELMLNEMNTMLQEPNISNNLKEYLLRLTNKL

Vero = test: viability of Vero cells under compound – cytotoxicity control for flavivirus capping enzyme inhibitors (AID 588742); assay type: functional; conditions: Chlorocebus sabaeus
[16] = Trypanosoma cruzi growth suppression in host cells – NIH3T3 host cells, beta-gal luminescence, confirmation (AID 2044); assay type: functional, cell-based;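 further: intracellular parasites grown in NIH/3T3 mouse fibroblasts as host cells; luminescent beta-galactosidase reporter signal from transgenic T. cruzi replicating inside host cells; inhibitors lower the luminescence signal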
[17] = NIH3T3 cell viability loss – ATP luminescence, mouse fibroblasts, counter-screen, dose response (AID 2010); assay type: functional, cell-based;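 further: cells exposed to compound for about 90 hours before reading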

Cc1cc2nc(SCCN3CCOCC3)[nH]c2cc1C
EC50 [1]: 0.61 µM (active)
EC50 [2]: < 0.1 µM (active)
EC50 [3]: 0.345 µM (active)
EC50 [4]: 0.338 µM (active)
EC50 (H4): 0.22 µM (active)
EC50 [5]: 1.88 µM (active)

CCn1c(C)cc(/C=C2/NC(=O)N(c3ccccc3)C2=O)c1C
EC50 [1]: 0.505 µM (active)
EC50 [3]: 0.307 µM (active)
EC50 [4]: 0.236 µM (active)
EC50 (H4): > 120 µM (not active)
EC50 [5]: < 0.1 µM (active)
EC50 [6]: > 195 µM (not active)

CC(=O)Nc1cc(-c2ccc(Cl)cc2)n[nH]1
EC50 [7]: 1.8 µM (active)

OC1=C2C(=Nc3cc4c(cc3C2c2ccc(F)cc2)OCCO4)CO1 (centres undefined)
IC50 [8]: 0.0539 µM (active)

COc1ccc(C)cc1N=C(N)Nc1nc(C)cc(C)n1
EC50 [7]: 3.95 µM (active)

COc1cc(/C=C2\C(=N)N3N=C(S(C)(=O)=O)SC3=NC2=O)ccc1OCCOc1ccccc1C
IC50 [9]: 3.51 µM (active)
CC50 [10]: 26.3 µM (active)
IC50 [11]: 28.5 µM (active)

COc1cccc(-c2nnc(NC(=O)Cc3cccs3)s2)c1
IC50 (Estrogen receptor): 19.1 µM (active)

COc1cccc(C(=O)O/N=C(\N)c2ccc([N+](=O)[O-])cc2)c1
EC50 [7]: 3.57 µM (active)

C/C(=N/NC(=O)c1cccs1)c1c(C)[nH]n(-c2nc3ccccc3s2)c1=O
EC50 (Streptococcus): 9.42 µM (active)
EC50 [12]: 10.9 µM (active)
AC50 (INS1): 7.34 µM (active)
EC50 [13]: 11.2 µM (active)
CC50 [14]: 25.8 µM (active)
EC50 [15]: 5.77 µM (active)

CSc1nnc(-c2ccccc2/N=C/c2c(C)nn(-c3ccc4ccccc4c3)c2O)c(O)n1
EC50 [2]: 9.56 µM (active)
EC50 (H4): 46.3 µM (active)
EC50 [5]: 8.3 µM (active)
IC50 (Genome polyprotein): 37.5 µM (active)
IC50 (Aminopeptidase N): 31.9 µM (active)
IC50 [11]: 3.61 µM (active)
CC50 (Vero): > 40 µM (active)

O=C(CCC1CCCN(Cc2ccc3c(c2)CCO3)C1)NCc1ccc(F)c(F)c1 (centres undefined)
EC50 (cells): 0.011 µM (active)
EC50 [16]: < 0.1 µM (active)
EC50 [17]: > 60 µM (not active)

Cc1occc1C(=O)NC1CCCN(Cc2ccc(CC(C)C)cc2)C1 (centres undefined)
EC50 (cells): 0.073 µM (active)
EC50 [16]: < 0.1 µM (active)
EC50 [17]: > 60 µM (not active)
